Key:
[1] = Binding to human plasma protein by rapid equilibrium dialysis; assay type: in vitro ADME; conditions: 1 μg mL^−1
Protocol: Binding to plasma proteins, brain homogenates or proteins in serum-fortified HMI-9 media was determined by rapid equilibrium dialysis (RED) (Pierce, Rockford, IL) using a 48-well plate-based format according to the manufacturer's instructions. Briefly, test compound was added to fresh plasma (Bioreclamation, Liverpool, NY) at the required concentrations, freshly prepared brain homogenate or media. Duplicate aliquots of each sample were transferred into the sample chambers of the RED devices, and dialysis buffer (BupH PBS) was added to the buffer chambers. The plates were sealed and incubated at 37 °C for 4 h. After dialysis, samples collected from the buffer and tissue chambers were treated with ice-cold methanol (3 volumes for plasma or HMI-9 media, 4 volumes for brain) to precipitate proteins. The treated samples were centrifuged for 10 min at approximately 3000 g at 15 °C. The supernatants were assayed for test compound by LC-MSMS. Calibration standards and quality control samples were prepared in matched matrix and assayed with samples. Values for unbound and bound fractions and mass balance were calculated. Concordance of binding for each batch of plasma was confirmed by assay of warfarin, imipramine and carbamezapine. Acceptance criterion for mass balance was 70–120%.

[2] = Single oral dose pharmacokinetics and CNS penetration in male CD-1 mice; assay type: in vivo, mouse
Protocol: The CNS disposition and pharmacokinetics of the benzoxaboroles were evaluated in infected and uninfected mice following oral administration. In vivo phases of single-dose rodent PK studies were performed at Vivisource (Waltham, MA) following Institutional Animal Care and Use Committee (IACUC) review in an Association for Assessment and Accreditation of Laboratory Animal Care International (AAALAC)-approved facility. Studies in Trypanosoma brucei brucei (TREU 667 strain) infected mice, or uninfected satellite animals, were performed after IACUC review at Pace University (NewYork, NY).
Male CD-1 or female Swiss Webster mice (approximately 25 g) were administered test compounds by oral gavage either once (QD) or twice per day (Q12 h) with doses ranging between 6 and 100 mg kg^−1 as described below. All compounds were formulated as an in situ sodium salt in 2% (v/v) ethanol, 5% (m/v) dextrose, to yield typically clear colourless solutions that were administered at 4 mL kg^−1. Blood samples for pharmacokinetic studies were collected into polypropylene tubes containing K2EDTA anticoagulant and stored on wet ice until centrifuged and processed to plasma. Plasma was stored at −80 °C. Blood samples from mice were collected via cardiac puncture under terminal anaesthesia. Rodents were euthanized in a CO2 chamber before collection of terminal blood or tissue samples. Brain tissues were blotted dry and stored at approximately −80 °C.
Plasma (50 μL) was treated with 4 volumes of ice-cold methanol (containing 25 ng mL^−1 of either deuterium (d6)-labelled SCYX-7158 internal standard (SCYX-5232) for SCYX-7158 analyses or a related benzoxaborole for other compounds) to precipitate proteins. Treated samples were gently mixed on a 96-well plate shaker for approximately 10 min then centrifuged at approximately 3000 g and 15 °C for 15 min. Supernatants were transferred to fresh 96-well plates for analysis by means of LC-MSMS. Samples of tissue homogenate (50 μL), or buffer from protein binding studies, were treated similarly to plasma samples.
All biological samples were assayed by a verified LC-MSMS method employing two dimensional chromatographic separation to overcome ion suppression (Annesely, [2003]) caused by co-elution of endogenous components with benzoxaboroles. In summary, treated samples were loaded onto Phenomenex (Torrance, CA) Synergi Polar RP, 4 μ, 50×2 mm extraction columns and subsequently back-eluted onto a Phenomenex Luna C8(2) 3 μ, 50×2 mm analytical columns protected by a Phenomenex C8 guard cartridge. Mobile phases for extraction and analytical columns consisted of 5 mM ammonium formate and 0·1% (v/v) formic acid in water (A), and 5 mM ammonium formate and 0·1% (v/v) formic acid in methanol (B). […]

Mass balance [1]: 110% | time CNS (brain) total concentration above MIC [2]: ~20 h
SMILES: CC1(C)OB(O)c2cc(NC(=O)c3ccc(F)cc3C(F)(F)F)ccc21 [SCYX-7158]

Reference: paper PMC3884839, “Pharmacokinetics and pharmacodynamics utilizing unbound target tissue exposure as part of a disposition-based rationale for lead optimization of benzoxaboroles in the treatment of Stage 2 Human African Trypanosomiasis” (Parasitology, 2013)
